Measurements from US20030157084A1, “Methods for preparing purified prostaglandin E synthase” (priority 2001, published 2003).
“Also recorded” adds a separate entry of the source.

T1: purified His6-hPGES (Homo sapiens, UniProt O14684)
T1 sequence (O14684 1-152): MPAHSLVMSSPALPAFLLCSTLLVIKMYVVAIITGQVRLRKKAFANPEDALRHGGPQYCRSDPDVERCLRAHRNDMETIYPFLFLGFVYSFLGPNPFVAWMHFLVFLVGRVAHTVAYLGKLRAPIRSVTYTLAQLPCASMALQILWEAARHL


Legend:
[1] = target: T1, purified His6-hPGES; assay: LTC4 synthase activity of purified His6-hPGES with LTA4; format: biochemical; parameters: made in house; host or cells: E. coli BL21(DE3) with pLysSL; details: 37 ° C.; up to 100 μg/ml enzyme, 30 μM LTA4, 10 mM GSH, pH 7.4
[2] = target: T1, purified His6-hPGES; assay: Glutathione transferase (GST) activity of purified His6-hPGES with CDNB; format: biochemical; parameters: made in house; host or cells: E. coli BL21(DE3) with pLysSL; details: purified His6-hPGES incubated with LTA4
Experimental: Glutathione transferase (GST) activity (glutathione conjugation) was assayed with the classical model substrate for GSTs, p-chloro-2,4-dinitrobenzene (CDNB). […] Formation of product was detected at 340 nm (molar absorption coefficient for the product, GS-DNB, is 9.6 mM^−1 cm^−1).

[3] = 24° C.; Tanioka et al. (2000); cited from earlier work
[4] = Kinetic properties of other enzymes with PGE synthase activity (literature); format: biochemical; details: cytosolic PGES versus His6-hPGES

Row | GST activity after incubation of the enzyme with LTA4 [2] | Molecule | Specific activity (LTC4 synthase activity) [1] | published Vmax [3] | Vmax compared with specific activity of purified His6-hPGES, times lower [4]
1 | no GST activity could be detected | CCCCC/C=C\C\C=C/C=C/C=C/[C@@H]1O[C@H]1CCCC(=O)O [LTA4, leukotriene (LT) A4] | No activity above background could be detected; also recorded: Not detectable above background |  | 
2 |  | Cytosolic PGES LPS-induced: enzyme with PGE synthase activity, Rat, brain (Tanioka et al. 2000); recently identified cytosolic PGES (protein, UniProt P83868 1-160, looked up) Prostaglandin E synthase 3: MQPASAKWYDRRDYVFIEFCVEDSKDVNVNFEKSKLTFSCLGGSDNFKHLNEIDLFHCIDPNDSKHKRTDRSILCCLRKGESGQSWPRLTKERAKLNWLSVDFNNWKDWEDDSDEDMSNFDRFSEMMDHMGGDEDVDLPEVDGADDDSQDSDDEKMPDLE |  | 0.19 µmol/min/mg | about 1,000 times
